Series [1] has as its system Bacillus megaterium. Kind of series: Antibiotic sensitivity testing in petri dishes (MIC method). The note with it: FIG. 1; for sensitivity of Bacillus megaterium to antimicrobial agent / control of growth in vitro: 1*10^7 bacteria per culture, 37° C., 24 h. The format is cell-based. The protocol:
The bacterial culture medium (HuanKai Microbial, Guangzhou, China) containing peptone 5 g, beef extract 3 g, NaCl 5 g, agar 15 g, and MnSO4 5 mg in 1 L ddH2O (pH=7.2) was prepared in conical flask (Drtech, Guangzhou, China) and was sterilized in the autoclave (HIRAYAMA, HEV-50, Japan) at 121° C. for 30 min. Antibiotics (ampicillin, vancomycin, neomycin, metronidazole, and tetracycline, purchased from Sigma, USA) at various concentrations were added into cooled medium. Bacillus megaterium (total 1*10^7 per culture) was cultured in the incubator (HettCube 200, Germany) at 37° C. for 24 h.
To test whether antibiotics can control the growth of Bacillus megaterium in vitro and in vivo, an antibiotic sensitivity screening test in petri dishes was carried out. The sensitivity of Bacillus megaterium to several major antimicrobial agents including Ampicillin, vancomycin, neomycin, metronidazole, and tetracycline were examined using the minimum inhibitory concentration (MIC) method.

Series [2] concerns Bacillus megaterium. The series is classed as in vivo, monkey. As to the method:
The inventors collected both AH and vitreous humor (VH) specimens from AMD patients and were able to detect B. megaterium DNA in both uncultured and cultured samples. The inventors further examined whether subretinal inoculation of AH and VH cultures which had B. megaterium, as well as the cultured single species of B. megaterium led to AMD like pathology in macaque. Briefly, about 20 CFU of bacteria (in 20 μl PBS) from AH, VH, and B. megaterium cultures were injected subretinally and PBS was used as a control. The fundus examination of macaque eye was performed before (Day 0) and after bacterial inoculation on Day 1, Day 3, Day 35 as well as Day 47. The PBS injection left only visible scar on the retina, while all bacterial inoculations led to drusenoid lesions on retinal tissues. Drusen-like nodules were also visible under the RPE layer. Fluorescence in situ hybridization results also located B. megaterium in drusenoid but not in the normal tissues post inoculation. An elevation in the expression of C5A, CFH, CASPASE1, and NLRP3 proteins was also detected in the B. megaterium infected drusenoid lesion and para-lesion tissues as compared to the uninfected normal retina in macaque.
Next, Bacillus megaterium subretinal inoculation model was used to test whether antibiotics might be able to change the bacteria-induced drusenoid pathology in monkey retinal tissues.

On to `Cc1ncc([N+](=O)[O-])n1CCO` [metronidazole], for which the “fold less effective in controlling the growth of Bacillus megaterium” value with Bacillus megaterium [1] (compared with neomycin) was determined as 10000 fold.
Consider `CN[C@H](CC(C)C)C(=O)N[C@H]1C(=O)N[C@@H](CC(N)=O)C(=O)N[C@H]2C(=O)N[C@H]3C(=O)N[C@H](C(=O)N[C@H](C(=O)O)c4cc(O)cc(O)c4-c4cc3ccc4O)[C@H](O)c3ccc(c(Cl)c3)Oc3cc2cc(c3O[C@@H]2O[C@H](CO)[C@@H](O)[C@H](O)[C@H]2O[C@H]2C[C@](C)(N)[C@H](O)[C@H](C)O2)Oc2ccc(cc2Cl)[C@H]1O` [vancomycin], for which the “sensitivity of Bacillus megaterium to antimicrobial agent / control of growth in vitro” value with Bacillus megaterium [1] is on record as “able to inhibit the growth”. Moreover, in the series on Bacillus megaterium [2] (intravitreous 0.5 mg, one injection on Day 2 post bacterial inoculation, monkey, FIG. 2), the “size of drusenoid lesion in retinal tissue” value is reported as “reduction in the size of drusenoid lesion”.
On to neomycin, for which, in the series on Bacillus megaterium [1], the “sensitivity of Bacillus megaterium to antimicrobial agent / control of growth in vitro” value is “most sensitive”. The “ocular complications after intraocular administration” value in the series with Bacillus megaterium [2] (intraocular administration in monkey (data not shown)) was “significant ocular complications including ophthalmatrophia”.

The record behind these values is patent publication US20220016146A1, “METHOD OF TREATING AGE-RELATED MACULAR DEGENERATION” (ZHUHAI QiWEl BIO-TECHNOLOGY LTD., priority 2018, published 2022).
